These compounds were tested against RORγ (Homo sapiens (Human), UniProt P51449) (assay: RORγ Reporter Assay (Gal4)). Conditions: HEK293 cells co-transfected with RORγ LBD-Gal4 and luciferase reporter; 24 h incubation; absolute IC50.
Type: cell-based
Protocol: The activity of the compounds was evaluated using a RORγ Reporter assay (also referred to as Gal4 assay). The Gal4 and the Th17 assays (another suitable assay) are both cell-based assays monitoring functional activity of the compound assayed. The HEK293 cell line is co-transfected transiently with two plasmids, one with the RORγ ligand-binding domain fused to galactose-responsive transcription factor (Gal4), and the other with the luciferase reporter gene and Gal binding sites (UAS). This construction allows to determine the RORγ activity in a cellular system through the measurement of luminescence. […] Media formulation consisted in DMEM/F-12 medium (Gibco) supplemented with 10% heat inactivated FBS (Sigma-Aldrich), non-essential aminoacids (Sigma-Aldrich), 2 mM Glutamax (Gibco) and 100 U/mL penicillin (Sigma-Aldrich). Dose-response curves with compounds were prepared in 100% DMSO and further diluted […] in culture medium. Compound solutions were added to the plate containing cells (final DMSO concentration of 0.1%) and incubated for 24 h at 37° C. and 5% CO2. Luciferase detection reagent was added to each well, and relative light units (RLUs) were quantified from each assay well using a plate reading luminometer. Values of average RLU±S.D. were computed for all treatment sets, followed by the calculations of percent-reduction of RORγ activity in response to respective test compound. The following formula was used: activity=100*[1−[x test compound/average vehicle where the theoretical minimum reduction (0% reduction).

Chain of RORγ (P51449 269-508): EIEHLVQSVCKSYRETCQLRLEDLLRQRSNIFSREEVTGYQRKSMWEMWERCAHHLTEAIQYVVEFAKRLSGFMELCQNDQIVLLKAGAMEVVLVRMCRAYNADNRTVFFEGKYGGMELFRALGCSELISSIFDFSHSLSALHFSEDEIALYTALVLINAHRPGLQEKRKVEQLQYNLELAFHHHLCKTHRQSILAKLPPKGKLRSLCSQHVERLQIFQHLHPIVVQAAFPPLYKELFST

| SMILES | IC50 [nM] |
| --- | --- |
| NC(=O)CN1CC[C@@H](CNc2ncnc(N(C[C@H]3CC[C@H](C(F)(F)F)CC3)C3CCC3)c2F)[C@H](O)C1 (racemic) [Example A6-5, 2-((3RS,4RS)-4-(((6-(cyclobutyl(((1r,4R)-4-(trifluoromethyl)cyclohexyl)methyl)amino)-5-fluoropyrimidin-4-yl)amino)methyl)-3-hydroxypiperidin-1-yl)acetamide] | 17 |
| CCN(C[C@H]1CC[C@]2(CC1)CC2(F)F)c1ncnc(NC[C@@H]2CCN(CC(N)=O)C[C@H]2O)c1F (relative stereo) [Example A6-1-1-1, rel-2-((3R,4R)-4-(((6-(((1,1-Difluorospiro[2.5]octan-6-yl)methyl)(ethyl)amino)-5-fluoropyrimidin-4-yl)amino)methyl)-3-hydroxypiperidin-1-yl)acetamide] | 35 |
| CCN(CC1CCC2(CC1)CC2(F)F)c1ncnc(NC[C@H]2CCN(CC(N)=O)C[C@@H]2O)c1F (relative stereo) [Example A6-1-1-2, rel-2-((3R,4R)-4-(((6-(((1,1-Difluorospiro[2.5]octan-6-yl)methyl)(ethyl)amino)-5-fluoropyrimidin-4-yl)amino)methyl)-3-hydroxypiperidin-1-yl)acetamide] | 44 |
| CCN(C[C@H]1CC[C@H](C(F)(F)F)CC1)c1ncnc(NC[C@@]2(O)CCN(CC(N)=O)C[C@@H]2O)c1F (single isomer, unassigned) [AD-6-1, 2-((3R*,4R*)-4-(((6-(ethyl(((1r,4R)-4-(trifluoromethyl)cyclohexyl)methyl)amino)-5-fluoropyrimidin-4-yl)amino)methyl)-3,4-dihydroxypiperidin-1-yl)acetamide] | 1.2 |
| CCN(C[C@H]1CC[C@H](C(F)(F)F)CC1)c1ncnc(NC[C@@]2(O)CCN(CC(N)=O)C[C@@H]2O)c1F (single isomer, unassigned) [AD-6-2, 2-((3R*,4R*)-4-(((6-(ethyl(((1r,4R)-4-(trifluoromethyl)cyclohexyl)methyl)amino)-5-fluoropyrimidin-4-yl)amino)methyl)-3,4-dihydroxypiperidin-1-yl)acetamide] | 15 |
| CCN(C[C@H]1CC[C@H](C(F)(F)F)CC1)c1ncnc2c1ccn2C[C@]1(O)CCN(CC(N)=O)C[C@H]1O (single isomer, unassigned) [BD-5-1-1, 2-((3R*,4R*)-4-((4-(ethyl(((1r,4R)-4-(trifluoromethyl)cyclohexyl)methyl)amino)-7H-pyrrolo[2,3-d]pyrimidin-7-yl)methyl)-3,4-dihydroxypiperidin-1-yl)acetamide] | 3.3 |
| CCN(C[C@H]1CC[C@H](C(F)(F)F)CC1)c1ncnc2c1ccn2C[C@]1(O)CCN(CC(N)=O)C[C@H]1O (single isomer, unassigned) [BD-5-1-2, 2-((3R*,4R*)-4-((4-(ethyl(((1r,4R)-4-(trifluoromethyl)cyclohexyl)methyl)amino)-7H-pyrrolo[2,3-d]pyrimidin-7-yl)methyl)-3,4-dihydroxypiperidin-1-yl)acetamide] | 4.3 |
| CCN(C[C@H]1CC[C@@]2(CC1)CC2(F)F)c1ncnc(NC[C@@H]2CCN(CC(N)=O)C[C@H]2O)c1F (single isomer, unassigned) [Example A6-1-2-1] | 49 |
| CCN(CC1CCC2(CC1)COC2)c1ncnc(NC[C@@H]2CCN(CC(N)=O)C[C@H]2O)c1F (single isomer, unassigned) [Example A6-6-1] | 690 |
| CCN(CC1CCC2(CC1)COC2)c1ncnc(NC[C@@H]2CCN(CC(N)=O)C[C@H]2O)c1F (single isomer, unassigned) [Example A6-6-2] | 980 |
| CCN(CC1(F)CCC(C(F)(F)F)CC1)c1ncnc(NC[C@@H]2CCN(CC(N)=O)C[C@H]2O)c1F (single isomer, unassigned) [Example A6-7-1] | 43 |
| CCN(CC1(F)CCC(C(F)(F)F)CC1)c1ncnc(NC[C@@H]2CCN(CC(N)=O)C[C@H]2O)c1F (single isomer, unassigned) [Example A6-7-2] | 69 |

What follows are compounds tested on plasma IL-17A (assay: In vivo IL-17A induction in anti-CD3 model in mice). Conditions: male C57BL/6JRj mice, anti-CD3e induced plasma IL-17A, oral gavage twice daily day 0 to day 3, 3 mg/kg.
Protocol: Compounds disclosed herein have also been evaluated in a mouse in vivo pharmacodynamic model (anti-CD3-induced plasma IL-17A).
Male C57BL/6JRj mice (7 week old) were purchased from Janvier Labs and housed at the animal facilities of Almirall throughout the study. Animals were allowed to condition for 5 days in their new environment at 22° C.±2° C., 55%±10% relative humidity and 12 h:12 h light:dark cycles. Animals were housed in polycarbonate cages, with free access to water and non-purified stock diet (2014 Teklad Global 14% Protein Rodent Maintenance Diet, Envigo) during the full course of the studies. […]
Mice were injected intraperitoneally with 7.5 μg of anti-CD3e (Clone 145-2C11 from Pharmingen BD) at 0 h (day 0) and 48 h (day 3) time-points. […] Plasma levels of IL-17A were measured by ELISA (R&D Systems) according to the manufacturer's instruction. Results were calculated as the percentage of reduction of plasma IL-17A versus the difference between non-induced and anti-CD3e induced groups through the formula: inhibition=100*[1−[(x−mean non-induced)/(mean control vehicle−mean non-induced)]]. The IL-17A inhibition for each treatment can be expressed as the mean for each treatment group±S.E.M. Statistical analysis of data were conducted with one-way ANOVA followed by Dunnett's multiple comparisons test when appropriate. […]

| SMILES | Inhibition of IL-17A (%) at 3 mg/kg [%] |
| --- | --- |
| CCN(C[C@H]1CC[C@H](C(F)(F)F)CC1)c1ncnc(NC[C@@]2(O)CCN(CC(N)=O)C[C@@H]2O)c1F (single isomer, unassigned) [AD-6-1, 2-((3R*,4R*)-4-(((6-(ethyl(((1r,4R)-4-(trifluoromethyl)cyclohexyl)methyl)amino)-5-fluoropyrimidin-4-yl)amino)methyl)-3,4-dihydroxypiperidin-1-yl)acetamide] | 95 |
